The source of these data is patent US9108944B2, “Androgen receptor modulators and uses thereof” (ARAGON PHARMACEUTICALS, INC., priority 2010, dated 2015).

pIC50: −log10 of the molar value.

Experiment [1] has as its target T1, AR-VP16 (Homo sapiens, UniProt P10275).
T1 sequence (P10275 560-920 limits assumed): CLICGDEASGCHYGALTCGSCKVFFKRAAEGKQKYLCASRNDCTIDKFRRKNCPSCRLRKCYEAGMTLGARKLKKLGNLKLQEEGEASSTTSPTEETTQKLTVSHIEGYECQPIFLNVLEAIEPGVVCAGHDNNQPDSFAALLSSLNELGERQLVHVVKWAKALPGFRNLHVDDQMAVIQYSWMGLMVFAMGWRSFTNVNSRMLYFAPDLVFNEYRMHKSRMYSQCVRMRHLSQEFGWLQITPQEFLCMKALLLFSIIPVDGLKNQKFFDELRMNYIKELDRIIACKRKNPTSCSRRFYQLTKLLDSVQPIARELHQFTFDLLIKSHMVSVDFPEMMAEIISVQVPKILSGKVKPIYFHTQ
Nature of the experiment: AR-VP16 DNA Binding Assay, agonist mode (HepG2 cells). The class given is cell-based. The note with it: Emax >20x DMSO control = agonist.

Experiment [2] addresses T1, AR-VP16. Nature of the experiment: AR-VP16 DNA Binding Assay, antagonist mode (HepG2 cells, 0.1 nM R1881). The class given is cell-based. The method, boiled down:
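Transfected HepG2 cells expressing AR-VP16 received serially diluted compound in charcoal-stripped-serum RPMI the day after transfection, with 0.1 nM R1881 (final) added only for antagonist testing. After 48 h, cells were lysed for measurement.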

By pIC50 is commonly meant the IC50 on a negative log10 scale, so that one unit is a factor of ten. Lower therefore signals a high IC50. As for `N#Cc1ncc(N2C(=O)C3(CCC3)N(c3ccc(OCCCc4ccccc4)c(F)c3)C2=S)cc1C(F)(F)F` [Compound 138, 5-(5-(3-Fluoro-4-(3-phenylpropoxy)phenyl)-8-oxo-6-thioxo-5,7-diazaspiro[3.4]octan-7-yl)-3-(trifluoromethyl)picolinonitrile], the “ARVP16 DNA Binding Assay (Agonist mode): Agonist?” value (“ARVP16 DNA Binding Assay” for short) in experiment [1] is on record as “No (Agonist defined as a compound whose Emax in the ARVP16 DNA Binding Assay (Agonist mode) is >20x DMSO control)”. In experiment [2], the pIC50 is under 6.00.

For the molecule `N#Cc1ncc(N2C(=O)C3(CCC3)N(c3ccc(OCCc4cccc5ccccc45)c(F)c3)C2=S)cc1C(F)(F)F` [Compound 140, 5-(5-(3-Fluoro-4-(2-(naphthalen-1-yl)ethoxy)phenyl)-8-oxo-6-thioxo-5,7-diazaspiro[3.4]octan-7-yl)-3-(trifluoromethyl)picolinonitrile], the “ARVP16 DNA Binding Assay” value in experiment [1] is recorded as “No (Agonist defined as a compound whose Emax in the ARVP16 DNA Binding Assay (Agonist mode) is >20x DMSO control)”. The molecule also gave a pIC50 in experiment [2] of under 6.00.

For `N#Cc1ncc(N2C(=O)C3(CCC3)N(c3ccc(OCCc4ccc5ccccc5c4)c(F)c3)C2=S)cc1C(F)(F)F` [Compound 141, 5-(5-(3-Fluoro-4-(2-(naphthalen-2-yl)ethoxy)phenyl)-8-oxo-6-thioxo-5,7-diazaspiro[3.4]octan-7-yl)-3-(trifluoromethyl)picolinonitrile], the “ARVP16 DNA Binding Assay” value in experiment [1] is “Yes (Agonist defined as a compound whose Emax in the ARVP16 DNA Binding Assay (Agonist mode) is >20x DMSO control)”. In addition, the pIC50 in experiment [2] is under 6.00.

Regarding `N#Cc1ncc(N2C(=O)C3(CCC3)N(c3ccc(OCCN4CCOCC4)c(F)c3)C2=S)cc1C(F)(F)F` [Compound 143, 5-(5-(3-Fluoro-4-(2-morpholinoethoxy)phenyl)-8-oxo-6-thioxo-5,7-diazaspiro[3.4]octan-7-yl)-3-(trifluoromethyl)picolinonitrile], the “ARVP16 DNA Binding Assay” value in experiment [1] is recorded as “Yes (Agonist defined as a compound whose Emax in the ARVP16 DNA Binding Assay (Agonist mode) is >20x DMSO control)”. Further, the pIC50 in experiment [2] was over 6.00.

With `N#Cc1ncc(N2C(=O)C3(CCC3)N(c3ccc(OCCc4cccnc4)c(F)c3)C2=S)cc1C(F)(F)F` [Compound 144, 5-(5-(3-Fluoro-4-(2-(pyridin-3-yl)ethoxy)phenyl)-8-oxo-6-thioxo-5,7-diazaspiro[3.4]octan-7-yl)-3-(trifluoromethyl)picolinonitrile], in experiment [1], the “ARVP16 DNA Binding Assay” value was “Yes (Agonist defined as a compound whose Emax in the ARVP16 DNA Binding Assay (Agonist mode) is >20x DMSO control)”. In experiment [2], this molecule gave a pIC50 of over 6.00.

With `N#Cc1ncc(N2C(=O)C3(CCC3)N(c3ccc(OCCn4cccc4)c(F)c3)C2=S)cc1C(F)(F)F` [Compound 146, 5-(5-(4-(2-(1H-Pyrrol-1-yl)ethoxy)-3-fluorophenyl)-8-oxo-6-thioxo-5,7-diazaspiro[3.4]octan-7-yl)-3-(trifluoromethyl)picolinonitrile], the “ARVP16 DNA Binding Assay” value in experiment [1] is recorded as “No (Agonist defined as a compound whose Emax in the ARVP16 DNA Binding Assay (Agonist mode) is >20x DMSO control)”. The same molecule showed a pIC50 in experiment [2] of over 6.00.

For `CN1CCN(CCOc2ccc(N3C(=S)N(c4cnc(C#N)c(C(F)(F)F)c4)C(=O)C34CCC4)cc2F)CC1` [Compound 149, 5-(5-(3-Fluoro-4-(2-(4-methylpiperazin-1-yl)ethoxy)phenyl)-8-oxo-6-thioxo-5,7-diazaspiro[3.4]octan-7-yl)-3-(trifluoromethyl)picolinonitrile], in experiment [1], the “ARVP16 DNA Binding Assay” value is reported as “No (Agonist defined as a compound whose Emax in the ARVP16 DNA Binding Assay (Agonist mode) is >20x DMSO control)”. Besides, in experiment [2], the pIC50 is over 6.00.

Regarding `N#Cc1ncc(N2C(=O)C3(CCC3)N(c3ccc(OCCCN4CCOCC4)c(F)c3)C2=S)cc1C(F)(F)F` [Compound 150, 5-(5-(3-Fluoro-4-(3-morpholinopropoxy)phenyl)-8-oxo-6-thioxo-5,7-diazaspiro[3.4]octan-7-yl)-3-(trifluoromethyl)picolinonitrile], the “ARVP16 DNA Binding Assay” value in experiment [1] was “Yes (Agonist defined as a compound whose Emax in the ARVP16 DNA Binding Assay (Agonist mode) is >20x DMSO control)”. The pIC50 in experiment [2] is over 6.00.

On to `N#Cc1ncc(N2C(=O)C3(CCC3)N(c3ccc(OCCCCSCCCC(F)(F)C(F)(F)F)c(F)c3)C2=S)cc1C(F)(F)F` [Compound 151, 5-(5-(3-Fluoro-4-(4-((4,4,5,5,5-pentafluoropentyl)thio)butoxy)phenyl)-8-oxo-6-thioxo-5,7-diazaspiro[3.4]octan-7-yl)-3-(trifluoromethyl)picolinonitrile], for which the “ARVP16 DNA Binding Assay” value in experiment [1] is reported as “No (Agonist defined as a compound whose Emax in the ARVP16 DNA Binding Assay (Agonist mode) is >20x DMSO control)”. Also, the pIC50 in experiment [2] was under 6.00.

On to `N#Cc1ncc(N2C(=O)C3(CCC3)N(c3ccc(OCCCC[S+]([O-])CCCC(F)(F)C(F)(F)F)c(F)c3)C2=S)cc1C(F)(F)F` (stereo not drawn) [Compound 152, 5-(5-(3-Fluoro-4-(4-((4,4,5,5,5-pentafluoropentyl)sulfinyl)butoxy)phenyl)-8-oxo-6-thioxo-5,7-diazaspiro[3.4]octan-7-yl)-3-(trifluoromethyl)picolinonitrile], for which, in experiment [1], the “ARVP16 DNA Binding Assay” value is “No (Agonist defined as a compound whose Emax in the ARVP16 DNA Binding Assay (Agonist mode) is >20x DMSO control)”. In experiment [2], this molecule showed a pIC50 of over 6.00.

On to `N#Cc1ncc(N2C(=O)C3(CCC3)N(c3ccc(OCCCSCCCC(F)(F)C(F)(F)F)c(F)c3)C2=S)cc1C(F)(F)F` [Compound 153, 5-(5-(3-Fluoro-4-(3-((4,4,5,5,5-pentafluoropentyl)thio)propoxy)phenyl)-8-oxo-6-thioxo-5,7-diazaspiro[3.4]octan-7-yl)-3-(trifluoromethyl)picolinonitrile], for which the “ARVP16 DNA Binding Assay” value in experiment [1] is given as “No (Agonist defined as a compound whose Emax in the ARVP16 DNA Binding Assay (Agonist mode) is >20x DMSO control)”. The same molecule gave a pIC50 in experiment [2] of over 6.00.

Turning to `N#Cc1ncc(N2C(=O)C3(CCC3)N(c3ccc(OCCC[S+]([O-])CCCC(F)(F)C(F)(F)F)c(F)c3)C2=S)cc1C(F)(F)F` (stereo not drawn) [Compound 154, 5-(5-(3-Fluoro-4-(3-((4,4,5,5,5-pentafluoropentyl)sulfinyl)propoxy)phenyl)-8-oxo-6-thioxo-5,7-diazaspiro[3.4]octan-7-yl)-3-(trifluoromethyl)picolinonitrile], the “ARVP16 DNA Binding Assay” value in experiment [1] is “No (Agonist defined as a compound whose Emax in the ARVP16 DNA Binding Assay (Agonist mode) is >20x DMSO control)”. For the same molecule, the pIC50 in experiment [2] is over 6.00.

For `O=C1N(c2ccc3nnc(C(F)(F)F)n3n2)C(=S)N(c2ccc(OCCc3ccccn3)cc2)C12CCC2` [Compound 155, 5-(4-(2-(Pyridin-2-yl)ethoxy)phenyl)-6-thioxo-7-(3-(trifluoromethyl)-[1,2,4]triazolo[4,3-b]pyridazin-6-yl)-5,7-diazaspiro[3.4]octan-8-one], the “ARVP16 DNA Binding Assay” value in experiment [1] is reported as “No (Agonist defined as a compound whose Emax in the ARVP16 DNA Binding Assay (Agonist mode) is >20x DMSO control)”. In experiment [2], this molecule showed a pIC50 of under 6.00.

As to `N#Cc1ncc(N2C(=O)C3(CCC3)N(c3ccc(F)c(OCCc4ccccn4)c3)C2=S)cc1C(F)(F)F` [Compound 158, 5-(5-(4-Fluoro-3-(2-(pyridin-2-yl)ethoxy)phenyl)-8-oxo-6-thioxo-5,7-diazaspiro[3.4]octan-7-yl)-3-(trifluoromethyl)picolinonitrile], the “ARVP16 DNA Binding Assay” value in experiment [1] is on record as “No (Agonist defined as a compound whose Emax in the ARVP16 DNA Binding Assay (Agonist mode) is >20x DMSO control)”. In experiment [2], this molecule showed a pIC50 of under 6.00.

Take `N#Cc1ncc(N2C(=O)C3(CCC3)N(c3ccc(F)c(OCCc4cccnc4)c3)C2=S)cc1C(F)(F)F` [Compound 159, 5-(5-(4-Fluoro-3-(2-(pyridin-3-yl)ethoxy)phenyl)-8-oxo-6-thioxo-5,7-diazaspiro[3.4]octan-7-yl)-3-(trifluoromethyl)picolinonitrile]: in experiment [1], the “ARVP16 DNA Binding Assay” value was “No (Agonist defined as a compound whose Emax in the ARVP16 DNA Binding Assay (Agonist mode) is >20x DMSO control)”. In addition, the pIC50 in experiment [2] was under 6.00.

On to `N#Cc1ncc(N2C(=O)C3(CCC3)N(c3ccc(F)c(OCCc4ccncc4)c3)C2=S)cc1C(F)(F)F` [Compound 160, 5-(5-(4-Fluoro-3-(2-(pyridin-4-yl)ethoxy)phenyl)-8-oxo-6-thioxo-5,7-diazaspiro[3.4]octan-7-yl)-3-(trifluoromethyl)picolinonitrile], for which, in experiment [1], the “ARVP16 DNA Binding Assay” value was “No (Agonist defined as a compound whose Emax in the ARVP16 DNA Binding Assay (Agonist mode) is >20x DMSO control)”. This molecule also had a pIC50 in experiment [2] of under 6.00.

As for `N#Cc1ncc(N2C(=O)C3(CCC3)N(c3ccc(F)c(OCc4ccccc4)c3)C2=S)cc1C(F)(F)F` [Compound 161, 5-(5-(3-(Benzyloxy)-4-fluorophenyl)-8-oxo-6-thioxo-5,7-diazaspiro[3.4]octan-7-yl)-3-(trifluoromethyl)picolinonitrile], in experiment [1], the “ARVP16 DNA Binding Assay” value is “No (Agonist defined as a compound whose Emax in the ARVP16 DNA Binding Assay (Agonist mode) is >20x DMSO control)”. The molecule also showed a pIC50 in experiment [2] of under 6.00.

As for `N#Cc1ncc(N2C(=O)C3(CCC3)N(c3ccc(F)c(OCCc4ccccc4)c3)C2=S)cc1C(F)(F)F` [Compound 162, 5-(5-(4-Fluoro-3-phenethoxyphenyl)-8-oxo-6-thioxo-5,7-diazaspiro[3.4]octan-7-yl)-3-(trifluoromethyl)picolinonitrile], the “ARVP16 DNA Binding Assay” value in experiment [1] is “No (Agonist defined as a compound whose Emax in the ARVP16 DNA Binding Assay (Agonist mode) is >20x DMSO control)”. In experiment [2], this molecule had a pIC50 of under 6.00.
